Values quoted from earlier work, collected in article PMC3591511 (Expert reviews in molecular medicine, 2012).
pKi: −log10 of the molar value. One block for each molecule: values may come before it.

Experiments:
[1] = system: p53-MDM2 complex
[2] = molecular target: IL-2/IL-2Rα; conditions: antagonist of IL-2/IL-2α receptor interaction; ref [53]

Structure (SMILES): CC(C)(C)C[C@H]1N[C@@H](C(=O)NCC[C@H](O)CO)[C@H](c2cccc(Cl)c2)[C@@]12C(=O)Nc1cc(Cl)c(F)cc12.Cl [MI-219]
inhibition of complex formation ([1]; p53-MDM2, ref [58]): ~ 5 nM

pKi [2]: 7.22
Structure (SMILES): CC(C)C[C@@H](N=C(N)N)C(=O)NCC(=O)N1CCC(c2cc(-c3ccc(OCc4ccc(C(=O)O)o4)c(Cl)c3Cl)nn2C)CC1 [SP4206]

Structure (SMILES): COc1ccc(C2=N[C@@H](c3ccc(Cl)cc3)[C@@H](c3ccc(Cl)cc3)N2C(=O)N2CCNC(=O)C2)c(OC(C)C)c1 [Nutlin-3]
activity towards the p53-MDM2 complex ([1]; mid-nanomolar, enantioselective, ref [56]): ~ 70 nM
